Data set [1] can be described thus: Cytotoxicity (CC50) during the luciferase gene reporter assay. Type of data set: cell-based. The note with it: human, HEK293 cells; short treatment duration of the luciferase gene reporter assay. For orientation: A reporter such as luciferase makes a cellular process visible.
For data set [2], the system named is Wnt/β-Catenin signaling pathway. The data set is described as follows: Wnt signaling luciferase (TOPflash) reporter gene assay. Type of data set: cell-based. The note with it: for IC50: luciferase reporter gene assay, mean of three independent experiments, read-out: IC50 (nM) to inhibit the Wnt signaling activity. From the text:
A dual-luciferase gene reporter assay was used to test inhibitory activities of new compounds on Wnt signaling. […] Therefore, the effects of new compounds on AMPK was examined. […]

By CC50 is commonly meant the concentration giving 50% cytotoxicity. Usually IC50 stands for the concentration needed to halve the response being measured. In data set [1], `Cc1ccccc1-n1nnc(C(=O)Nc2ccc3ccccc3n2)c1C` [FX1128, reference compound] came in with a CC50 of over 92000 nM. Besides, the 50% inhibitory concentration (IC50) in data set [2] was found to be 4.1 nM.
One may read the inhibition as the change of the read-out against control, counted positive when it falls. A high value points to strong suppression. In the case of `Cc1cc(/C=C/c2ccc3cc(N(C)C)ccc3[n+]2C)c(C)n1-c1ccccc1` [Pyrvinium, reference compound], in data set [2], the inhibition at 1 µM stood at 69% and the IC50 came out at 599 nM.
The compound `Cc1c(C(=O)Nc2nc3ccccc3s2)nnn1-c1ccccc1OC(F)(F)F` [YA1038, N-(Benzo[d]thiazol-2-yl)-5-methyl-1-(2-(trifluoromethoxy)phenyl)-1H-1,2,3-triazole-4-carboxamide] showed a CC50 in data set [1] of over 92000 nM. Moreover, in data set [2], the inhibition at 1 µM worked out at 37% and the half-maximal inhibitory concentration (IC50) is over 1000 nM.
The like results for `Cc1cccc(F)c1-n1nnc(C(=O)Nc2nc3ccccc3s2)c1C` [YA1042, N-(Benzo[d]thiazol-2-yl)-1-(2-fluoro-6-methylphenyl)-5-methyl-1H-1,2,3-triazole-4-carboxamide] were, in that order, over 92000 nM, 92% and 3.3 nM.
The like results for `Cc1c(C(=O)Nc2nc3ccccc3s2)nnn1-c1ccc(F)cc1F` [YA1046, N-(Benzo[d]thiazol-2-yl)-1-(2,4-difluorophenyl)-5-methyl-1H-1,2,3-triazole-4-carboxamide] were, in that order, over 92000 nM, 40% and over 1000 nM.
In turn, `Cc1c(C(=O)Nc2nc3ccccc3s2)nnn1-c1cccc(Br)c1` [YA1050, N-(Benzo[d]thiazol-2-yl)-1-(3-bromophenyl)-5-methyl-1H-1,2,3-triazole-4-carboxamide] registered a 50% cytotoxic concentration (CC50) in data set [1] of over 92000 nM. Moreover, in data set [2], the inhibition at 1 µM was found to be 7% and the 50% inhibitory concentration (IC50) is over 1000 nM.
Regarding `Cc1cccc(Br)c1-n1nnc(C(=O)Nc2nc3ccccc3s2)c1C` [YA1064, N-(Benzo[d]thiazol-2-yl)-1-(2-bromo-6-methylphenyl)-5-methyl-1H-1,2,3-triazole-4-carboxamide], in data set [1], the CC50 is over 92000 nM. In addition, in data set [2], 1 µM produced 72% inhibition and the half-maximal inhibitory concentration (IC50) worked out at 126 nM.
`Cc1c(C(=O)Nc2nc3ccccc3s2)nnn1-c1c(Cl)cccc1Cl` [YA1066, N-(Benzo[d]thiazol-2-yl)-1-(2,6-dichlorophenyl)-5-methyl-1H-1,2,3-triazole-4-carboxamide] returned a CC50 in data set [1] of over 92000 nM. Besides, in data set [2], the inhibition at 1 µM was 88% and the IC50 is 19 nM.
In the case of `Cc1cccc(Cl)c1-n1nnc(C(=O)Nc2nc3ccccc3s2)c1C` [YA1068, N-(Benzo[d]thiazol-2-yl)-1-(2-chloro-6-methylphenyl)-5-methyl-1H-1,2,3-triazole-4-carboxamide], the CC50 in data set [1] was over 92000 nM. For the same compound, in data set [2], the inhibition at 1 µM was 80% and the IC50 came to 35 nM.
For `Cc1c(C(=O)Nc2nc3ccccc3s2)nnn1-c1cccc(F)c1` [YA1072, N-(Benzo[d]thiazol-2-yl)-1-(3-fluorophenyl)-5-methyl-1H-1,2,3-triazole-4-carboxamide], in that order: over 92000 nM, 42% and over 1000 nM.
For `Cc1c(C(=O)Nc2nc3ccccc3s2)nnn1-c1ccc(Cl)cc1` [YA1074, N-(Benzo[d]thiazol-2-yl)-1-(4-chlorophenyl)-5-methyl-1H-1,2,3-triazole-4-carboxamide], in that order: over 92000 nM, 18% and over 1000 nM.
`Cc1c(C(=O)Nc2nc3ccccc3s2)nnn1-c1ccc(F)cc1` [YA1076, N-(Benzo[d]thiazol-2-yl)-1-(4-fluorophenyl)-5-methyl-1H-1,2,3-triazole-4-carboxamide] showed a half-maximal cytotoxic concentration (CC50) in data set [1] of over 92000 nM. Further, in data set [2], the inhibition at 1 µM was 15% and the half-inhibitory concentration (IC50) was over 1000 nM.
`Cc1c(C(=O)Nc2nc3ccccc3s2)nnn1-c1cc(F)ccc1F` [YA1084, N-(Benzo[d]thiazol-2-yl)-1-(2,5-difluorophenyl)-5-methyl-1H-1,2,3-triazole-4-carboxamide] yielded a CC50 in data set [1] of over 92000 nM. In data set [2], the inhibition at 1 µM came to 88% and the half-inhibitory concentration (IC50) was 4.7 nM.
In turn, `Cc1c(C(=O)Nc2nc3ccccc3s2)nnn1-c1ccc(Br)cc1` [YA1086, N-(Benzo[d]thiazol-2-yl)-1-(4-bromophenyl)-5-methyl-1H-1,2,3-triazole-4-carboxamide] had a CC50 in data set [1] of over 92000 nM. In addition, in data set [2], the inhibition at 1 µM turned out to be 32% and the concentration for half-maximal inhibition (IC50) was over 1000 nM.
In data set [1], `Cc1ccccc1-n1nnc(C(=O)Nc2ccc3ccc(Br)cc3n2)c1C` [YA1126, N-(7-Bromoquinolin-2-yl)-5-methyl-1-(o-tolyl)-1H-1,2,3-triazole-4-carboxamide] showed a 50% cytotoxic concentration (CC50) of over 92000 nM. Besides, the IC50 in data set [2] is over 1000 nM.
`CCc1c(C(=O)Nc2nc3ccccc3s2)nnn1-c1ccccc1F` [YA4001, N-(Benzo[d]thiazol-2-yl)-5-ethyl-1-(2-fluorophenyl)-1H-1,2,3-triazole-4-carboxamide] yielded a half-maximal cytotoxic concentration (CC50) in data set [1] of over 92000 nM. For the same compound, in data set [2], the half-maximal inhibitory concentration (IC50) came out at 0.76 nM.
Turning to `Cc1c(C(=O)Nc2nc3ccccc3s2)nnn1-c1ccccc1Br` [YA4003, N-(Benzo[d]thiazol-2-yl)-1-(2-bromophenyl)-5-methyl-1H-1,2,3-triazole-4-carboxamide], the cytotoxic concentration (CC50) in data set [1] was over 92000 nM. In data set [2], testing at 1 µM gave an inhibition of 100% and the half-maximal inhibitory concentration (IC50) stood at 1.8 nM.
For `CC(C)c1c(C(=O)Nc2nc3ccccc3s2)nnn1-c1ccccc1F` [YA4005, N-(Benzo[d]thiazol-2-yl)-1-(2-fluorophenyl)-5-isopropyl-1H-1,2,3-triazole-4-carboxamide], in that order: over 92000 nM, 99% and 8.8 nM.
As for `Cc1c(C(=O)Nc2nc3ccccc3s2)cnn1-c1ccccc1F` [YA4007, N-(Benzo[d]thiazol-2-yl)-1-(2-fluorophenyl)-5-methyl-1H-pyrazole-4-carboxamide], in data set [1], the cytotoxic concentration (CC50) was over 92000 nM. The IC50 in data set [2] was found to be 1.3 nM.
In turn, `CCc1ccccc1-n1ncc(C(=O)Nc2nc3ccccc3s2)c1C` [YA4009, N-(Benzo[d]thiazol-2-yl)-1-(2-ethylphenyl)-5-methyl-1H-pyrazole-4-carboxamide] returned a cytotoxic concentration (CC50) in data set [1] of over 92000 nM. Further, the IC50 in data set [2] was found to be 6.7 nM.
The like results for `Cc1c(C(=O)Nc2nc3ccccc3s2)cnn1-c1ccccc1` [YA4011, N-(Benzo[d]thiazol-2-yl)-5-methyl-1-phenyl-1H-pyrazole-4-carboxamide] were, in that order, over 92000 nM and 8.2 nM.
In the case of `Cc1ccccc1-n1nnc(C(=O)Nc2nc3cc(Cl)ccc3s2)c1C` [YA4013, N-(5-Chlorobenzo[d]thiazol-2-yl)-5-methyl-1-(o-tolyl)-1H-1,2,3-triazole-4-carboxamide], the half-maximal cytotoxic concentration (CC50) in data set [1] is over 92000 nM. In data set [2], the inhibition at 1 µM is 61% and the 50% inhibitory concentration (IC50) came out at 202 nM.
Compound `Cc1c(C(=O)Nc2nc3ccccc3s2)cnn1-c1c(F)cccc1Br` [YA4017, N-(Benzo[d]thiazol-2-yl)-1-(2-bromo-6-fluorophenyl)-5-methyl-1H-pyrazole-4-carboxamide] had a CC50 in data set [1] of over 92000 nM. The IC50 in data set [2] amounted to 8.2 nM.
For `Cc1c(C(=O)Nc2nc3ccccc3s2)cnn1-c1c(F)cccc1F` [YA4019, N-(benzo[d]thiazol-2-yl)-1-(2,6-difluorophenyl)-5-methyl-1H-pyrazole-4-carboxamide], in that order: over 92000 nM and 0.9 nM.
In data set [1], `Cc1c(C(=O)Nc2nc3ccccc3s2)cnn1-c1cccc(Cl)c1F` [YA4021, N-(Benzo[d]thiazol-2-yl)-1-(3-chloro-2-fluorophenyl)-5-methyl-1H-pyrazole-4-carboxamide] gave a half-maximal cytotoxic concentration (CC50) of over 92000 nM. For the same compound, the IC50 in data set [2] came to 9.8 nM.
Regarding `Cc1c(C(=O)Nc2nc3ccccc3s2)cnn1-c1ccccc1Cl` [YA4025, N-(Benzo[d]thiazol-2-yl)-1-(2-chlorophenyl)-5-methyl-1H-pyrazole-4-carboxamide], the CC50 in data set [1] is over 92000 nM. Also, the IC50 in data set [2] was determined as 0.4 nM.
Regarding `Cc1c(C(=O)Nc2nc3ccccc3s2)nnn1-c1ccccc1F` [YA4029, N-(benzo[d]thiazol-2-yl)-1-(2-fluorophenyl)-5-methyl-1H-1,2,3-triazole-4-carboxamide], in data set [1], the CC50 is over 92000 nM. In data set [2], at 1 µM the inhibition was 100% and the IC50 was determined as 0.46 nM.
`Cc1c(C(=O)Nc2nc3ccccc3s2)cnn1-c1ccccc1Br` [YA4033, N-(Benzo[d]thiazol-2-yl)-1-(2-bromophenyl)-5-methyl-1H-pyrazole-4-carboxamide]: the CC50 in data set [1] was over 92000 nM. Besides, the IC50 in data set [2] amounted to 5.8 nM.
Consider `Cc1cccc(-n2nnc(C(=O)Nc3nc4ccccc4s3)c2C)c1C` [YA4037], for which the cytotoxic concentration (CC50) in data set [1] was over 92000 nM. In data set [2], the inhibition at 1 µM turned out to be 83% and the IC50 was determined as 18 nM.
The like results for `Cc1ccc(-n2nnc(C(=O)Nc3nc4ccccc4s3)c2C)c(C)c1` [YA4039] were, in that order, over 92000 nM, 88% and 17 nM.
Consider `COc1ccc2sc(NC(=O)c3nnn(-c4ccccc4C)c3C)nc2c1` [YA4045, N-(5-Methoxybenzo[d]thiazol-2-yl)-5-methyl-1-(o-tolyl)-1H-1,2,3-triazole-4-carboxamide], for which the 50% cytotoxic concentration (CC50) in data set [1] was over 92000 nM. Also, the IC50 in data set [2] was over 1000 nM.
`Cc1c(C(=O)Nc2nc3ccccc3s2)nnn1-c1cccc(Cl)c1` [YA4055, N-(Benzo[d]thiazol-2-yl)-1-(3-chlorophenyl)-5-methyl-1H-1,2,3-triazole-4-carboxamide] yielded a CC50 in data set [1] of over 92000 nM.
Take `Cc1ccccc1-n1nnc(C(=O)Nc2ccc3cc(CN4CCN(C(=O)CCOCCOCCOCCOCCNC(=O)CCCC[C@@H]5SC[C@@H]6NC(=O)N[C@@H]65)CC4)ccc3n2)c1C` [YA6023]: in data set [2] (biotinylated analogs), the “inhibitory activity in the reporter assay” value is reported as “maintained inhibitory activities”.
`O=C(Nc1nc2ccccc2s1)c1cnn(-c2ccccc2)c1` [YA6149, N-(Benzo[d]thiazol-2-yl)-1-phenyl-1H-pyrazole-4-carboxamide]: in data set [1], the CC50 is over 92000 nM.

(Values after US20240279201A1, “DUAL WNT SIGNALING PATHWAY INHIBITORS AND AMPK ACTIVATORS FOR TREATMENTS OF DISEASE” (priority 2021, published 2024).)
